{"source": "patent US11453697B1", "about": "“Cyclic di-nucleotide compounds as sting agonists” (Merck Sharp & Dohme Corp., priority 2015, dated 2022)", "key": {"full-length HAQ STING": {"target": "full-length HAQ STING (Homo sapiens (Human), UniProt Q86WV6, G230A/H232R/R293Q/R71H)", "sequence (Q86WV6 other isoform, or with tags, fused parts or gaps, stated change not applied)": "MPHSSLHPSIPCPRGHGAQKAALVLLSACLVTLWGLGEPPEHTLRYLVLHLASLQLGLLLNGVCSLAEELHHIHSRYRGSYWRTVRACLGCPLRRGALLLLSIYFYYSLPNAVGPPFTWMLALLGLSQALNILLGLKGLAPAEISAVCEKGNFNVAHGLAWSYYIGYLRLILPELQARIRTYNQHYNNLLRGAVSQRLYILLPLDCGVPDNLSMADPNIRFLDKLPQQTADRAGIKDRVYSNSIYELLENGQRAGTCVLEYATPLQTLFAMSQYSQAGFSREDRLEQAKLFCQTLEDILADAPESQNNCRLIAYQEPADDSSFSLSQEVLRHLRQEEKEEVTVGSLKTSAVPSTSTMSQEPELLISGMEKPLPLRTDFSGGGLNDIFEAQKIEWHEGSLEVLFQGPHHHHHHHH", "assay": "3H-cGAMP filtration binding assay (HAQ STING)", "details": "competition with tritiated cGAMP, HAQ STING membrane; read-out: EC50 (nM), 3H-cGAMP filtration binding assay for HAQ STING", "excerpt": "The ability of compounds to bind STING is quantified by the ability to compete with tritiated cGAMP ligand for human STING receptor membrane using a radioactive filter-binding assay. The binding assay employs STING receptor obtained from Hi-Five cell membranes overexpressing full-length HAQ STING prepared in-house and tritiated cGAMP ligand also purified in-house.\nThe ability of compounds to bind STING is quantified by their ability to compete with tritiated cGAMP ligand for human STING receptor membrane using a radioactive filter-binding assay.\nThe basic HAQ STING filtration assay protocol is as follows:\nCompound and membrane then preincubated for 60 min at RT to allow compound binding to equilibrate. Following equilibration, 8 nM of [^3H] c-GAMP ligand was prepared by diluting into assay buffer, and 50 uL of this working stock was then manually added to each well of the assay plate. […] The filter plates were then dried at 55° C. for 30 min using a pressurized VWR oven before 30 uL of Ultima GoldF scintillate was added to each well. Tritium levels for each reaction well were then measured using a PerkinElmer TopCount plate reader.\nAfter normalization to controls, the percent activity for each compound concentration was calculated by measuring the amount of remaining radioactivity. The plot of percent activity versus the log of compound concentration was fit with a 4-parameter dose response equation to calculate EC50 values."}, "[1]": {"test_system": "IFN-β secretion in THP1 cells", "assay": "IFN-β secretion in THP1 cell culture (5 h)", "type": "cell-based, human", "procedure,_shortened": "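THP1 cells incubated with compound for 5 h at 37 °C, 5% CO2, and secreted IFN-β in supernatant quantified by AlphaLISA. Percent effect normalised to 30 uM cGAMP positive control and 0.3% DMSO. EC50 from 4-parameter fit.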"}, "[2]": {"details": "IFN-β secretion in THP1 cell culture, 5 h, compound at 30 μM, percent activation relative to 2′3′-cGAMP"}}, "note": "Where two headings read alike, the source gives them in different places.", "data": [{"smiles": "Nc1ncnc2c1ncn2[C@@H]1O[C@@H]2COP(=O)(O)O[C@H]3[C@@H](F)[C@H](n4cnc5c(=O)[nH]cnc54)O[C@@H]3COP(=O)(O)O[C@@H]1[C@@H]2O", "note": "[Example 292, 9-[(5R,7R,8R,12aR,14R,15R,15aR,16R)-7-(6-amino-9H-purin-9-yl)-15-fluoro-2,10,16-trihydroxy-2,10-dioxidooctahydro-12H-5,8-methanofuro[3,2-l][1,3,6,9,11,2,10]pentaoxadiphosphacyclotetradecin-14-yl]-1,9-dihydro-6H-purin-6-one]", "values": [{"measurement": "EC50", "setting": "full-length HAQ STING", "value": 2.6, "unit": "nM"}, {"measurement": "% Effect at 30 μM relative to 2′3′-cGAMP", "setting": "[1]; [2]", "value": 114, "unit": "%"}]}, {"smiles": "Nc1nc2c(ncn2[C@@H]2O[C@@H]3COP(O)(=S)O[C@H]4[C@H](F)[C@H](n5cnc6c(=O)[nH]cnc65)O[C@@H]4COP(=O)(O)O[C@@H]2[C@@H]3F)c(=O)[nH]1", "note": "(stereo partly drawn) [Example 303, 2-amino-9-[(5R,7R,8S,12aR,14R,15S,15aR,16R)-15,16-difluoro-2,10-dihydroxy-10-oxido-14-(6-oxo-1,6-dihydro-9H-purin-9-yl)-2-sulfidooctahydro-12H-5,8-methanofuro[3,2-l][1,3,6,9,11,2,10]pentaoxadiphosphacyclotetradecin-7-yl]-1,9-dihydro-6H-purin-6-one]", "values": [{"measurement": "EC50", "setting": "full-length HAQ STING", "value": "< 1", "unit": "nM"}, {"measurement": "% Effect at 30 μM relative to 2′3′-cGAMP", "setting": "[1]", "value": 106, "unit": "%"}]}, {"smiles": "O=c1[nH]cnc2c1ncn2[C@@H]1O[C@@H]2COP(=O)(O)O[C@@H]3C[C@@H](COP(=O)(O)O[C@H]2[C@H]1O)O[C@H]3n1cnc2c(=O)[nH]cnc21", "note": "[Example 333]", "values": [{"measurement": "EC50", "setting": "full-length HAQ STING", "value": 45.9, "unit": "nM"}, {"measurement": "% Effect at 30 μM relative to 2′3′-cGAMP", "setting": "[1]; [2]", "value": 10, "unit": "%"}]}, {"smiles": "Nc1nc2c(ncn2[C@@H]2O[C@@H]3COP(=O)(O)OC4C(O)[C@H](c5cnn6c(=O)[nH]cnc56)O[C@@H]4COP(=O)(O)OC2C3O)c(=O)[nH]1", "note": "(stereo in doubt) [Example 321, 8-[(5R,7R,8R,12aR,14S,15S,15aS,16R)-7-(2-amino-6-oxo-1,6-dihydro-9H-purin-9-yl)-2,10,15,16-tetrahydroxy-2,10-dioxidooctahydro-12H-5,8-methanofuro[3,2-l][1,3,6,9,11,2,10]pentaoxadiphosphacyclotetradecin-14-yl]pyrazolo[1,5-a][1,3,5]triazin-4(3H)-one]", "values": [{"measurement": "EC50", "setting": "full-length HAQ STING", "value": 112, "unit": "nM"}, {"measurement": "% Effect at 30 μM relative to 2′3′-cGAMP", "setting": "[1]; [2]", "value": 36, "unit": "%"}]}, {"smiles": "Nc1nc2c(ncn2[C@@H]2O[C@@H]3COP(=O)(O)O[C@H]4[C@@H](O)[C@H](n5nnc6c(N)ncnc65)O[C@@H]4COP(=O)(O)O[C@@H]2[C@@H]3O)c(=O)[nH]1", "note": "[Example 55, 2-amino-9-[(5R,7R,8R,12aR,14R,15R,15aS,16R)-14-(7-amino-3H-[1,2,3]triazolo[4,5-d]pyrimidin-3-yl)-2,10,15,16-tetrahydroxy-2,10-dioxidooctahydro-12H-5,8-methanofuro[3,2-l][1,3,6,9,11,2,10]pentaoxadiphosphacyclotetradecin-7-yl]-1,9-dihydro-6H-purin-6-one]", "values": [{"measurement": "EC50", "setting": "full-length HAQ STING", "value": 55.3, "unit": "nM"}, {"measurement": "% Effect at 30 μM relative to 2′3′-cGAMP", "setting": "[1]; [2]", "value": 83, "unit": "%"}]}, {"smiles": "Nc1ncnc2c1ncn2[C@@H]1O[C@@H]2COP(=O)(O)O[C@@H]3[C@H](O)[C@@H](COP(=O)(O)O[C@H]2[C@H]1O)O[C@H]3c1n[nH]c2c(=O)[nH]cnc12", "note": "[Example 74, 3-[(5R,7S,8R,12aR,14R,15R,15aS,16R)-14-(6-amino-9H-purin-9-yl)-2,10,15,16-tetrahydroxy-2,10-dioxidooctahydro-12H-5,8-methanofuro[3,2-l][1,3,6,9,11,2,10]pentaoxadiphosphacyclotetradecin-7-yl]-1,6-dihydro-7H-pyrazolo[4,3-d]pyrimidin-7-one]", "values": [{"measurement": "EC50", "setting": "full-length HAQ STING", "value": 5.8, "unit": "nM"}, {"measurement": "% Effect at 30 μM relative to 2′3′-cGAMP", "setting": "[1]; [2]", "value": 57, "unit": "%"}]}, {"smiles": "Nc1nc2c(ncn2[C@@H]2O[C@@H]3COP(=O)(O)O[C@H]4[C@@H](O)[C@H](c5cnn6c(N)ncnc56)O[C@@H]4COP(=O)(O)O[C@@H]2[C@@H]3O)c(=O)[nH]1", "note": "[Example 54, 2-amino-9-[(5R,7R,8R,12aR,14S,15S,15aS,16R)-14-(4-aminopyrazolo[1,5-a][1,3,5]triazin-8-yl)-2,10,15,16-tetrahydroxy-2,10-dioxidooctahydro-12H-5,8-methanofuro[3,2-l][1,3,6,9,11,2,10]pentaoxadiphosphacyclotetradecin-7-yl]-1,9-dihydro-6H-purin-6-one]", "values": [{"measurement": "EC50", "setting": "full-length HAQ STING", "value": "< 1", "unit": "nM"}, {"measurement": "% Effect at 30 μM relative to 2′3′-cGAMP", "setting": "[1]", "value": 83, "unit": "%"}]}, {"smiles": "Nc1nc2c(ncn2[C@@H]2O[C@@H]3COP(=O)(S)O[C@H]4[C@H](F)[C@H](n5cnc6c(=O)[nH]cnc65)O[C@@H]4COP(=O)(S)O[C@@H]2C3)c(=O)[nH]1", "note": "(single isomer, unassigned) [Example 317]", "values": [{"measurement": "EC50", "setting": "full-length HAQ STING", "value": "< 1", "unit": "nM"}, {"measurement": "% Effect at 30 μM relative to 2′3′-cGAMP", "setting": "[1]; [2]", "value": 107, "unit": "%"}]}, {"smiles": "Nc1nc2c(ncn2[C@@H]2O[C@@H]3COP(=O)(O)O[C@H]4[C@@H](O)[C@H](c5n[nH]c6c(N)ncnc56)O[C@@H]4COP(=O)(O)O[C@@H]2[C@@H]3O)c(=O)[nH]1", "note": "[Example 49, 2-amino-9-[(5R,7R,8R,12aR,14S,15S,15aS,16R)-14-(7-amino-1H-pyrazolo[4,3-d]pyrimidin-3-yl)-2,10,15,16-tetrahydroxy-2,10-dioxidooctahydro-12H-5,8-methanofuro[3,2-l][1,3,6,9,11,2,10]pentaoxadiphosphacyclotetradecin-7-yl]-1,9-dihydro-6H-purin-6-one]", "values": [{"measurement": "EC50", "setting": "full-length HAQ STING", "value": 30, "unit": "nM"}, {"measurement": "% Effect at 30 μM relative to 2′3′-cGAMP", "setting": "[1]; [2]", "value": 74, "unit": "%"}]}, {"smiles": "Nc1nc2c(ncn2[C@@H]2O[C@@H]3COP(=O)(O)O[C@H]4[C@@H](O)[C@H](n5nnc6c(N)nccc65)O[C@@H]4COP(=O)(O)O[C@@H]2[C@@H]3O)c(=O)[nH]1", "note": "[Example 73, 2-amino-9-[(5R,7R,8R,12aR,14R,15R,15aS,16R)-14-(4-amino-1H-[1,2,3]triazolo[4,5-c]pyridin-1-yl)-2,10,15,16-tetrahydroxy-2,10-dioxidooctahydro-12H-5,8-methanofuro[3,2-l][1,3,6,9,11,2,10]pentaoxadiphosphacyclotetradecin-7-yl]-1,9-dihydro-6H-purin-6-one]", "values": [{"measurement": "EC50", "setting": "full-length HAQ STING", "value": 834, "unit": "nM"}, {"measurement": "% Effect at 30 μM relative to 2′3′-cGAMP", "setting": "[1]; [2]", "value": 5, "unit": "%"}]}, {"smiles": "Nc1nc2c(ncn2[C@@H]2O[C@@H]3COP(=O)(S)O[C@H]4[C@H](F)[C@H](n5cnc6c(=O)[nH]cnc65)O[C@@H]4COP(=O)(S)O[C@@H]2C3)c(=O)[nH]1", "note": "(single isomer, unassigned) [Example 318]", "values": [{"measurement": "EC50", "setting": "full-length HAQ STING", "value": 6.2, "unit": "nM"}, {"measurement": "% Effect at 30 μM relative to 2′3′-cGAMP", "setting": "[1]; [2]", "value": 150, "unit": "%"}]}, {"smiles": "COCCc1ncnc2c1ncn2[C@@H]1O[C@@H]2COP(=O)(O)O[C@@H]3[C@H](O)[C@@H](COP(=O)(O)O[C@H]2[C@H]1O)O[C@H]3n1cnc2c(=O)[nH]c(N)nc21", "note": "[Example 57, 2-amino-9-{(5R,7R,8R,12aR,14R,15R,15aS,16R)-2,10,15,16-tetrahydroxy-14-[6-(2-methoxyethyl)-9H-purin-9-yl]-2,10-dioxidooctahydro-12H-5,8-methanofuro[3,2-l][1,3,6,9,11,2,10]pentaoxadiphosphacyclotetradecin-7-yl}-1,9-dihydro-6H-purin-6-one]", "values": [{"measurement": "EC50", "setting": "full-length HAQ STING", "value": 438, "unit": "nM"}, {"measurement": "% Effect at 30 μM relative to 2′3′-cGAMP", "setting": "[1]; [2]", "value": 7, "unit": "%"}]}, {"smiles": "Nc1nc2c(ncn2[C@@H]2O[C@@]34COC3[C@@H]2OP(=O)(O)OC[C@H]2O[C@@H](n3cnc5c(N)ncnc53)[C@@H](O)C2OP(=O)(O)OC4)c(=O)[nH]1", "note": "(stereo partly drawn) [Example 17, 2-amino-9-[(2aR,5S,6aS,7R,8R,9aR,12S,14R,14aS,15R)-8-(6-amino-9H-purin-9-yl)-5,7,12-trihydroxy-5,12-dioxidohexahydro-6aH-2a,14-(epoxymethano)furo[3,2-d]oxeto[2,3-k][1,3,7,9,2,8]tetraoxadiphosphacyclotridecin-15(2H,3H)-yl]-1,9-dihydro-6H-purin-6-one]", "values": [{"measurement": "EC50", "setting": "full-length HAQ STING", "value": 121, "unit": "nM"}, {"measurement": "% Effect at 30 μM relative to 2′3′-cGAMP", "setting": "[1]; [2]", "value": 81, "unit": "%"}]}, {"smiles": "N#Cc1cn([C@@H]2O[C@@H]3COP(=O)(O)O[C@@H]4[C@H](O)[C@@H](COP(=O)(O)O[C@H]3[C@H]2O)O[C@H]4n2cnc3c(=O)[nH]c(N)nc32)c2ncnc(N)c12", "note": "[Example 60, 4-amino-7-[(5R,7R,8R,12aR,14R,15R,15aS,16R)-7-(2-amino-6-oxo-1,6-dihydro-9H-purin-9-yl)-2,10,15,16-tetrahydroxy-2,10-dioxidooctahydro-12H-5,8-methanofuro[3,2-l][1,3,6,9,11,2,10]pentaoxadiphosphacyclotetradecin-14-yl]-7H-pyrrolo[2,3-d]pyrimidine-5-carbonitrile]", "values": [{"measurement": "EC50", "setting": "full-length HAQ STING", "value": 42.5, "unit": "nM"}, {"measurement": "% Effect at 30 μM relative to 2′3′-cGAMP", "setting": "[1]; [2]", "value": 12, "unit": "%"}]}, {"smiles": "Nc1nc2c(ncn2[C@@H]2O[C@@H]3COP(=O)(S)O[C@H]4[C@@H](O)[C@H](n5ccc6c(N)ncnc65)O[C@@H]4COP(=O)(S)O[C@@H]2C3)c(=O)[nH]1", "note": "(single isomer, unassigned) [Example 80]", "values": [{"measurement": "EC50", "setting": "full-length HAQ STING", "value": 1.3, "unit": "nM"}]}, {"smiles": "Nc1nc2c(ncn2[C@@H]2O[C@@H]3COP(=O)(S)O[C@H]4[C@@H](O)[C@H](n5ccc6c(N)ncnc65)O[C@@H]4COP(=O)(S)O[C@@H]2C3)c(=O)[nH]1", "note": "(single isomer, unassigned) [Example 78]", "values": [{"measurement": "EC50", "setting": "full-length HAQ STING", "value": 14.6, "unit": "nM"}]}]}
